Experimental findings from patent US10927086B2, “Substituted sulfoximine compounds as indoleamine 2,3-dioxygenase (IDO) inhibitors” (Merck Sharp & Dohme Corp., priority 2017, dated 2021) are described below.

The target in test [1] is T1, IDO1 (Homo sapiens (Human), UniProt P14902). Briefly: IDO1 Enzyme Assay. Format: biochemical. The following applies: HIS-tagged recombinant IDO1, fluorescence readout. The procedure:
Compounds to be tested were serially diluted in ten 3-fold steps in DMSO starting from 10 mM DMSO stocks. Compound dilutions or DMSO alone were then dispensed from the dilution plate into a Greiner black 384-well assay plate (catalog #781086) using an Echo 555 acoustic liquid handler (Labcyte).
HIS-tagged IDO1 protein was recombinantly expressed in Escherichia coli using ZYP5052 autoinduction media supplemented with 500 μM delta aminolevulinic acid for 48 h at 16° C. IDO1 protein was purified using Ni^2+-affinity resin and size exclusion chromatography. Purified protein was then diluted in assay buffer (50 mM Tris pH 7.0, 1% glycerol, 20 μM methylene blue, 0.05% Tween-20, 20 mM sodium ascorbate, 100 units/mL catalase to obtain a final IDO1 concentration of 40 nM. IDO1 solution […] or buffer alone ([…]) were dispensed to wells of the assay plate using a BioRAPTR liquid dispenser (Beckman Coulter). Assay plates containing compound and IDO1 enzyme were incubated at RT for 30 min. Afterwards, 10 μL of 400 μM tryptophan in assay buffer were added to each well of the assay plate using a BioRAPTR liquid dispenser. Plates were incubated at RT for 60 min and reactions were quenched by addition of 10 μL of 0.5 M methyl isonipecotate in dimethyl sulfoxide. Plates were sealed and incubated at 37° C. for 4 h or 50° C. for 2 h. The plates are allowed to cool and then centrifuged for 1 min at 1000×g. The resulting fluoresence was measured in an Envision plate reader (Perkin Elmer) with a 400/25 nm excitation filter and an 510/20 nm emission filter.
Potencies were calculated by linear least squares fit to the four parameter logistic IC50 equation.
Target sequence in this assay (P14902 whole entry, species assumed): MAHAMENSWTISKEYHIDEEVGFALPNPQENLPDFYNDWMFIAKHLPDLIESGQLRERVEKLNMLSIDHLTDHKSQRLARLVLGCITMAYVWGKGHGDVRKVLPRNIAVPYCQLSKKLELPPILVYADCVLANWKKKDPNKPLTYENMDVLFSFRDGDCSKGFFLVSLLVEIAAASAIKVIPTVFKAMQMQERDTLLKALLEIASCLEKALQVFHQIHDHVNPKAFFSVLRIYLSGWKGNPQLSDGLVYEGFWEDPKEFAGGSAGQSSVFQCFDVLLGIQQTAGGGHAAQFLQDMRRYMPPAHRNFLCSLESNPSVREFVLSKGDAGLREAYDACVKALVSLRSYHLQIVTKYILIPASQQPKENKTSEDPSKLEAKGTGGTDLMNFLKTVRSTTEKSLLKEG

Test [2] deals with T1, IDO1. Briefly: IDO1 Cellular Assay in Hela Cells Stimulated with IFNγ. As to conditions: about 48 hours, read-out: IDO1 HELA Cell Assay, IC50. Format: cell-based. The protocol: Hela cells were cultured in complete Hela culture medium (90% EMEM, 10% heat-inactivated fetal bovine serum) and expanded to about 1×10^9 cells. The cells were then collected and frozen down at 10×10^6 cells/vial in 1 mL frozen medium (90% complete Hela culture medium, 10% DMSO)
Compounds to be tested were serially diluted in ten 3-fold steps in DMSO starting from 10 mM DMSO stocks in Echo low volume plate(s). Compound dilutions or DMSO alone were then dispensed from the dilution plate(s) into Greiner black 384-well assay plate(s) (catalog #781086, 50 nL/well) using an Echo 550 acoustic liquid handler (Labcyte).
Frozen Hela cells were thawed and transferred into Hela assay medium (99% complete Hela culture medium, 1% Pen/Strep) with 20 mL medium/vial of cells. The cells were spun down at 250 g in a table top centrifuge for 5 min and suspended in same volume of Hela assay medium. The cells were then counted and adjusted to a density of 2×10^5 cells/ml in Hela assay medium. Sterile L-tryptophan were added to the cells with final concentration of 300 uM L-tryptophan. A small aliquot (2 mL/plate) of Hela cells were set aside and were not treated with IFNγ, to serve as the Max-E control. The rest of Hela cells were added with sterile IFNγ (Cat #285-IF, R & D systems) with a final concentration of 100 ng/mL.
Hela cells with and without IFNγ were dispensed to the respective wells of 384-well assay plates containing the compounds. The plates were incubated for about 48 hours at a 37° C., 5% CO2 incubator. Afterwards, 12 μL of 0.5 M methyl isonipecotate in dimethyl sulfoxide were added into each well and the plates were sealed and incubated at 37° C. without CO2 overnight. The plates were centrifuged for 1 min at 200×g. The resulting fluorescence was measured in a Spectramax plate reader (Molecular Devices) with a 400 nm excitation filter and a 510 nm emission filter.
The fluorescence intensity of each well was corrected for the background observed in wells with non-IFNγ-treated cells and was expressed as a fraction of the intensity observed in wells of IFNγ-treated cells and DMSO only. Potencies were calculated by linear least squares fit to the four parameter logistic IC50 equation.
Target sequence in this assay (P14902 whole entry): as the sequence (P14902 whole entry, species assumed) above

As for `CS(=N)(=O)N1CCO[C@@H](CNc2nonc2/C(=N\O)N[C@@H]2Cc3ccc(F)cc32)C1` (single isomer, unassigned) [Example 64], the figures for the IC50 at IDO1 [1] and on IDO1 [2] were 83 nM and 200 nM, respectively.
In the case of `CS(=N)(=O)NCC(O)CNc1nonc1/C(=N\O)N[C@H]1Cc2ccc(F)cc21` (single isomer, unassigned) [Example 56], the figures for the IC50 on IDO1 [1] and on IDO1 [2] were 107 nM and 162 nM, respectively.
On to `CS(=N)(=O)NCCOc1nonc1/C(=N/O)N[C@H]1Cc2ccc(F)cc21` (single isomer, unassigned) [Example 51], for which the half-maximal inhibitory concentration (IC50) on IDO1 [1] came to 262 nM; on IDO1 [2], 317 nM.
For `CC(O)CS(=N)(=O)CCNc1nonc1/C(=N\O)N[C@@H]1Cc2ccc(F)cc21` (single isomer, unassigned) [Example 84], in that order: 56.8 nM and 55.2 nM.
For the compound `CS(=N)(=O)CCCCOc1nonc1/C(=N/O)N[C@H]1Cc2ccc(F)cc21` (single isomer, unassigned) [Example 33], the 50% inhibitory concentration (IC50) at IDO1 [1] was 184 nM; at IDO1 [2], 288 nM.
For `CS(=N)(=O)CCOCCNc1nonc1/C(=N/O)N[C@H]1Cc2ccc(F)cc21` (single isomer, unassigned) [Example 48] the same measures were 119 nM and 144 nM.
For `CN=S(C)(=O)CCNC(=O)CNc1nonc1/C(=N/O)N[C@H]1Cc2ccc(F)cc21` (stereo partly drawn) [Example 40, N-[2-(N,S-dimethylsulfonimidoyl)ethyl]-N~2~-(4-{N-[(7S)-4-fluorobicyclo[4.2.0]octa-1,3,5-trien-7-yl]-N′-hydroxycarbamimidoyl}-1,2,5-oxadiazol-3-yl)glycinamide], in that order: 237 nM and 201 nM.
For `CS(=N)(=O)N1CC2(CC(Nc3nonc3/C(=N\O)N[C@@H]3Cc4ccc(F)cc43)C2)C1` (single isomer, unassigned) [Example 77], in that order: 34.1 nM and 22.7 nM.
Regarding `CN(CCNc1nonc1/C(=N\O)N[C@H]1Cc2ccc(F)cc21)S(C)(=N)=O` (stereo partly drawn) [Example 54, N-[(7S)-4-fluorobicyclo[4.2.0]octa-1,3,5-trien-7-yl]-N′-hydroxy-4-({2-[methyl(S-methylsulfonimidoyl)amino]ethyl}amino)-1,2,5-oxadiazole-3-carboximidamide], the IC50 at IDO1 [1] amounted to 108 nM; at IDO1 [2], 102 nM.
For `CS(=N)(=O)CC(=O)N1CC(Oc2nonc2/C(=N/O)N[C@H]2Cc3ccc(F)cc32)C1` (single isomer, unassigned) [Example 50] the same measures were 111 nM and 153 nM.
For `CS(=O)(CCNc1nonc1/C(=N\O)N[C@H]1Cc2ccc(F)cc21)=NCCO` (single isomer, unassigned) [Example 58] the same measures were 125 nM and 123 nM.
For `CS(=N)(=O)CCC(O)CNc1nonc1/C(=N\O)N[C@@H]1Cc2ccc(F)cc21` (single isomer, unassigned) [Example 79], in that order: 77.6 nM and 91 nM.
As for `CS(=N)(=O)CCCNc1nonc1/C(=N/O)N[C@H]1Cc2ccc(F)cc21` (single isomer, unassigned) [Example 25], the IC50 on IDO1 [1] was 31.2 nM; on IDO1 [2], 42.7 nM.
As for `CS(=N)(=O)NCCCCNc1nonc1/C(=N/O)N[C@H]1Cc2ccc(F)cc21` (stereo partly drawn) [Example 53, N-[(7S)-4-fluorobicyclo[4.2.0]octa-1,3,5-trien-7-yl]-N′-hydroxy-4-({4-[(S-methylsulfonimidoyl)amino]butyl}amino)-1,2,5-oxadiazole-3-carboximidamide], the IC50 on IDO1 [1] turned out to be 69.4 nM; on IDO1 [2], 45.1 nM.
Regarding `CS(=N)(=O)N[C@H]1C[C@@H](Oc2nonc2/C(=N\O)N[C@@H]2Cc3ccc(F)cc32)C1` (single isomer, unassigned) [Example 62], the values for the half-maximal inhibitory concentration (IC50) at IDO1 [1] and at IDO1 [2] were 147 nM and 183 nM, respectively.
Regarding `CS(=N)(=O)CCNC(=O)CNc1nonc1/C(=N/O)N[C@H]1Cc2ccc(F)cc21` (single isomer, unassigned) [Example 13], the IC50 was 58.2 nM on IDO1 [1] and 95.5 nM at IDO1 [2].
